Experimental data published in PubChem BioAssay AID608 (Sanford-Burnham Center for Chemical Genomics, 2007).
Activity calls are given as the source filed them. No rule for the calls is given here.

Molecular target: Peptidyl-prolyl cis-trans isomerase FKBP1A (Homo sapiens) (UniProt P62942)
Assay: small-molecule binding to FKBP12 – biophysical, NMR detection (AID 608)
Conditions: purified FKBP12

Sequence of Peptidyl-prolyl cis-trans isomerase FKBP1A (Homo sapiens) (P62942 whole entry, looked up): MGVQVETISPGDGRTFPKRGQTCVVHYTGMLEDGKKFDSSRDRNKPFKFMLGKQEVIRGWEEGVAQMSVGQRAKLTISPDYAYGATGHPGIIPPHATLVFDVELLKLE

O=C(O)Cn1cc(C(=O)c2cccs2)c2ccccc21
Kd: > 4 mM (inactive)

Fc1ccc(-c2n[nH]c(=S)n2CC2CCCO2)cc1 (stereo not drawn)
Kd: > 4 mM (inactive)

Cc1cc(OCC(=O)N2CCOCC2)ccc1NC(=O)OCc1ccccc1
Kd: > 4 mM (inactive)

COC(=O)c1cc(-c2c(C)nn(-c3ccccc3)c2C)n[nH]1
Kd: > 4 mM (inactive)

Cc1cc(C)nc(/N=C(/N)N2CCC(C(N)=O)CC2)n1
Kd: > 4 mM (inactive)

CC(=O)OCC[C@H](C)CCC=C(C)C
Kd: > 4 mM (inactive)

CC1=C(C(N)=O)C(c2ccco2)C(C(N)=O)=C(C)N1
Kd: > 4 mM (inactive)

COC(=O)CC1=Nc2ccccc2NC(=O)C1
Kd: > 4 mM (inactive)

COc1cccc(-c2nn(-c3ccccc3)cc2CO)c1
Kd: > 4 mM (inactive)

N#CCSc1nc2ccccc2c(=O)n1-c1ccccc1
Kd: > 4 mM (inactive)

CC1CN(C(=O)C(Sc2ccccc2)c2ccccc2)CC(C)O1 (stereo not drawn)
Kd: inactive

CC(O)(C(=O)O)c1ccccc1 (stereo not drawn)
Kd: > 4 mM (inactive)

CC(=O)NC(O)C(=O)c1cccs1 (stereo not drawn)
Kd: > 4 mM (inactive)

COC(=O)C[C@@H]1C2(C)C(=O)[C@@H](CC3=C4CC(O)O[C@@H](c5ccoc5)[C@]4(C)CCC32)[C@H](O)C1(C)C (stereo partly drawn)
Kd: > 4 mM (inactive)

CC(C)(OC(=O)c1ccccc1)[C@@H]1Cc2cc3ccc(=O)oc3cc2O1
Kd: > 4 mM (inactive)

Cc1cc(C(=O)c2c(C)nn(C)c2Cl)n(C)n1
Kd: > 4 mM (inactive)

NC(=O)NC(=O)Nc1ccc(Cl)cc1
Kd: > 4 mM (inactive)

O=C1COc2ccccc2C(=O)N1
Kd: > 4 mM (inactive)

Cc1cccc(-n2c(N)cc(=O)[nH]c2=S)c1C
Kd: > 4 mM (inactive)

COC(=O)CSc1n[nH]c(N)n1
Kd: > 4 mM (inactive)

O=C1OCCC1Sc1nc2ccccc2c(=O)[nH]1 (stereo not drawn)
Kd: > 4 mM (inactive)

S=c1nc[nH]c2c1cnn2-c1ccccc1
Kd: > 4 mM (inactive)

CCCCCC1C(=O)CCC1CC(=O)OC (stereo not drawn)
Kd: > 4 mM (inactive)

O=C(NCCCSc1ncccn1)Nc1ncccn1
Kd: > 4 mM (inactive)

CC(C)=CCc1c2c(c3occ(-c4ccc(O)c(O)c4)c(=O)c3c1O)C=CC(C)(C)O2
Kd: > 4 mM (inactive)

NS(=O)(=O)c1ccc(F)cc1
Kd: > 4 mM (inactive)

COC(=O)[C@@H]1CCCCN1C(=O)C(=O)c1cc(OC)c(OC)c(OC)c1
Kd: 0.003 mM

COc1ccc2c(=O)c(CC(=O)O)coc2c1
Kd: > 4 mM (inactive)

Cc1noc(C)c1C(=O)NC1=NCCS1
Kd: > 4 mM (inactive)

O=C(O)Cn1nnnc1-c1ccc(F)cc1
Kd: > 4 mM (inactive)

Cc1cc(Cl)ccc1OCC(=O)N1CCOCC1
Kd: inactive

O=C(c1cc(Cl)cc(Cl)c1)N1CCOCC1
Kd: > 4 mM (inactive)

NC(=O)CSc1nnnn1-c1ccccc1
Kd: > 4 mM (inactive)

COc1ccc2c(CC(=O)O)coc2c1
Kd: > 4 mM (inactive)

Nc1cccnc1N1CCOCC1
Kd: > 4 mM (inactive)

O=C(/C=C/c1ccc(O)cc1)c1ccc(O)cc1O
Kd: > 4 mM (inactive)

O=C(O)CSc1cccc2cccnc12
Kd: > 4 mM (inactive)

Cc1noc(C)c1C(=O)N1CCC(Cc2ccccc2)CC1
Kd: > 4 mM (inactive)

Nc1nc2ccc(N3CCOCC3)cc2s1
Kd: > 4 mM (inactive)

Cc1nn(C)c(Cl)c1C(O)c1c(C)nn(C)c1Cl
Kd: > 4 mM (inactive)

COc1ccc(S(=O)(=O)N2CCOCC2)cc1C(C)C
Kd: > 4 mM (inactive)

COc1ccc(OCC(=O)N2CCOCC2)cc1
Kd: inactive

CC(=O)OC1CCC2(C)C3CC(=O)C4(C)C(CC5OC6(CCC(C)CO6)[C@@H](C)C54)C3CC[C@H]2C1 (stereo partly drawn)
Kd: > 4 mM (inactive)

Cc1c(C(=O)NCc2ccccn2)oc2ccccc12
Kd: > 4 mM (inactive)

CSc1nc2nccc(N)n2n1
Kd: > 4 mM (inactive)

c1ccc(-c2nnc(CNCc3ccco3)o2)cc1
Kd: > 4 mM (inactive)

O=c1[nH]cc(N=Cc2ccc(F)cc2)c(=O)[nH]1
Kd: > 4 mM (inactive)

CCC(/C=C/[C@@H](C)[C@H]1CCC2C3CC=C4C[C@@H](O)CC[C@]4(C)C3CC[C@@]21C)C(C)C (stereo partly drawn)
Kd: > 4 mM (inactive)

COc1ccc(/C=C/c2cc(O)cc(O)c2)cc1
Kd: > 4 mM (inactive)

NC(=O)CSc1ncnc2ccccc12
Kd: > 4 mM (inactive)

Cn1nnc2cc(C(=O)NCc3ccco3)ccc21
Kd: > 4 mM (inactive)

c1ccc2[nH]c(CCn3cncn3)nc2c1
Kd: > 4 mM (inactive)

CCOC(=O)c1cnn2ccccc12
Kd: > 4 mM (inactive)

COC(=O)c1scc(S(C)(=O)=O)c1-n1cccc1
Kd: > 4 mM (inactive)

COc1cc(OC)c2c(=O)c(-c3ccccc3)coc2c1
Kd: > 4 mM (inactive)

Cn1cnc2c1c(=O)[nH]c(=O)n2C
Kd: > 4 mM (inactive)

Cc1occc1C(=O)NC1CCN(C)CC1
Kd: > 4 mM (inactive)

Cc1cc(C(F)(F)F)nn1CC(N)=O
Kd: > 4 mM (inactive)

CC(=O)Nc1cccc(NC(=O)c2ccco2)c1
Kd: > 4 mM (inactive)

COc1ccc(NS(=O)(=O)c2ccc(N)cc2)nn1
Kd: > 4 mM (inactive)

CC(=O)NCC1OCCc2ccccc21 (stereo not drawn)
Kd: > 4 mM (inactive)

COc1ccc(-c2cc(=O)c3c(O)cc(O[C@H]4O[C@H](CO[C@@H]5O[C@@H](C)[C@H](O)[C@@H](O)[C@H]5O)[C@@H](O)[C@H](O)[C@H]4O)cc3o2)cc1
Kd: > 4 mM (inactive)

CSc1ccccc1NC(=O)c1cccnc1
Kd: > 4 mM (inactive)

COc1cc2c(cc1OC)[C@@H]1C(=O)c3ccc(OC)c(CC=C(C)C)c3O[C@@H]1CO2
Kd: > 4 mM (inactive)

O=C(O)C1CC(=O)N(Cc2ccc(F)cc2)C1 (stereo not drawn)
Kd: > 4 mM (inactive)

CC(=O)Nc1ccc(C(=O)N2CCOCC2)cc1Cl
Kd: > 4 mM (inactive)

CC[C@@]1(O)C[C@H](O)c2c(cc3c(c2O)C(=O)c2c(O)ccc(O)c2C3=O)[C@H]1C(=O)OC
Kd: > 4 mM (inactive)

CCC1C(=O)OCC1Cc1cncn1C (stereo not drawn)
Kd: > 4 mM (inactive)

CSc1nnc2c(n1)OC(C)=Nc1ccccc1-2
Kd: > 4 mM (inactive)

COC(=O)c1c(C)c2c(c(C)c1O)OC(=O)c1c(C)c(Cl)c(O)c(Cl)c1O2
Kd: > 4 mM (inactive)

C=C1CCC2C(CC2(C)C)C(=C)CC/C1=N/O (stereo not drawn)
Kd: > 4 mM (inactive)

Cc1ccc(CN2C3=NC(=O)CN3c3ccccc32)cc1
Kd: > 4 mM (inactive)

O=c1c2ccccc2nc2n1CCCCN2
Kd: > 4 mM (inactive)

CSc1nc(C)cc(-n2ccc(=O)[nH]c2=O)n1
Kd: > 4 mM (inactive)

O=C(O)CN1CCNCC1
Kd: > 4 mM (inactive)

Cn1cnc2cc(NC(=O)c3ccco3)ccc21
Kd: > 4 mM (inactive)

Cc1nn2c3ccccc3nc2n(Cc2ccccc2)c1=O
Kd: > 4 mM (inactive)

C=C1[C@H]2CC[C@@]3(C)[C@H](c4ccoc4)OC(=O)C[C@]13O[C@H]1C[C@H](O)C(C)(C)[C@H](CC(=O)OC)[C@]12C
Kd: > 4 mM (inactive)

CC(=O)Nc1ccc(S(=O)(=O)NC(N)=O)cc1
Kd: > 4 mM (inactive)

OCc1ccc(N2CCOCC2)cc1
Kd: > 4 mM (inactive)

CC(NC(=O)c1cccnc1)c1ccc2c(c1)OCO2 (stereo not drawn)
Kd: > 4 mM (inactive)

O=C(c1sc2cccc(F)c2c1Cl)N1CCOCC1
Kd: inactive

NC(=O)CN1C(=O)c2cccc3cccc1c23
Kd: > 4 mM (inactive)
